# Test results taken from patent publication EP0671173A1, “Use of a tricyclic derivative for producing a medicament for the treatment of cognitive and memory disorders” (ADIR ET COMPAGNIE, priority 1994, dated 1995).
# Legend:
# [1] = system: souris mâles de la lignée BALB/c; experiment: T-maze: acquisition and retention of a simple spatial discrimination in the mouse; format: in vivo; conditions: 10 mg/kg i.p. 30 minutes before the test; for Acquisition de la discrimination : Nombre de réponses correctes sur les 20 premiers essais de l'épreuve: day 3, 12 BALB/c mice per group; for Acquisition de la discrimination : Nombre de réponses correctes sur les 20 premiers essais de l'épreuve / Rétention de la discrimination : Essais au critère: mean ± standard error; for Rétention de la discrimination : Essais au critère: day 4 (24 h after acquisition), criterion 5/5; for Rétention : Réponses correctes sur les cinq premiers essais: placebo 3,0 ± 0,21
# Excerpt: Comparaison des effets de la tianeptine et de l'isomère (+) de celle-ci sur l'alternance spontanée, l'acquisition et la rétention d'une discrimination spatiale simple (labyrinthe en T) chez la souris.
# Le principe du test s'appuie sur la tendance innée qu'ont les mammifères confrontés à un choix entre deux directions à prendre, à aller explorer le lieu qui leur est le moins familier. Un animal placé plusieurs fois successivement à l'entrée d'un labyrinthe en T se dirigera de préférence vers le bras qu'il n'a pas visité précédemment. Pour que ce comportement apparaisse, il est évidemment nécessaire que l'animal se souvienne du dernier bras visité. Ce souvenir met en jeu la mémoire dite de travail. La souris est soumise à une phase d'apprentissage (acquisition) pendant laquelle elle doit choisir plusieurs fois, de suite entre les deux bras, jusq'uà ce qu'elle ait opté cinq fois de suite pour un bras déterminé par l'expérimentateur. Pour apprécier si l'animal a bien retenu ce qu'il a appris au cours de l'épreuve d'acquisition, il est replacé 24 heures plus tard dans la même situation. Le degré de rétention sera mesuré par le nombre d'épreuves subies avant la réussite de cinq essais consécutifs.
# Animaux : 36 souris mâles de la lignée BALB/c, vierges de toute expérimentation et âgées de 14 à 16 semaines, sont utilisées. Elles sont placées, 15 jours avant le début des expériences, dans des cages individuelles (animalerie climatisée (22°C) et pourvue d'un cycle artificiel lumière-obscurité de 12 heures (7h ON)).
# Appareil : C'est un labyrinthe en T construit en plexiglas de couleur grise. Le couloir central et les deux bras d'arrivée mesurent 35 cm de long, 10 cm de large et 20 cm de haut. Le compartiment de départ (10 x 12 cm) est séparé du couloir central par une porte à guillotine. L'entrée de chaque bras est également pourvue d'une porte. L'appareil utilisé est semi-automatique : l'alimentation des mangeoires, l'ouverture et la fermeture des portes sont commandées par un micro-ordinateur selon le protocole pré-établi.
# Protocole : Toutes les épreuves se déroulent entre 9h et 16h et durant 4 jours (de J1 à J4) sans interruption. La ration alimentaire des animaux est réduite de façon à atteindre un poids corporel de 83-84 % du poids ad libitum pour les épreuves d'habituation (J1 et J2) et de 87-88 % lors des épreuves d'alternance et de discrimination spatiale (J3 et J4).
# Habituation (J1-J2) : L'expérience proprement dite est précédée de deux séances d'habituation de 10 minutes (exploration libre, une séance par jour). L'animal est simplement placé dans l'appareil toutes portes ouvertes.
# Alternances spontanées et acquisition de la discrimination (J3) : Ces deux épreuves ont lieu le lendemain sans interruption. Elles sont destinées à mesurer l'alternance (6 premiers essais) et la vitesse d'acquisition de la discrimination spatiale (essais suivants). Lors des 6 premiers essais, la nourriture est disposée à l'extrémité de chacun des deux bras. Lors de chaque essai, l'animal est placé dans le compartiment de départ pendant 30 secondes (intervalle entre essais). La porte donnant accès au couloir central est ouverte et la souris peut choisir entre les deux bras où elle reste enfermée pendant 30 secondes. On constate que l'animal normal alterne ses choix successifs (65 % d'alternance environ). Apartir du 6ème essai, la nourriture n'est plus disposée que dans un seul bras, toujours le même; le bras choisi est celui qui a été le moins visité au cours des 6 premiers essais. L'épreuve se poursuit alors jusqu'à ce que l'animal atteigne un critère de 5 bonnes réponses sur 5 essais consécutifs.
# Rétention de la discrimination spatiale (J4) : Elle se déroule dans les mêmes conditions que l'acquisition (même bras renforcé) et se poursuit pendant un minimum de 10 essais ou, au-delà, jusqu'à l'atteinte du critère de 5/5. Le nombre d'essais est limité à 20. […]
# [2] = system: souris mâles de la lignée BALB/c; conditions: 10 mg/kg, mouse; earlier results (Jaffard et coll., Behav. Pharmacol., 1991); cited from earlier work
Compound,Acquisition de la discrimination : Nombre de réponses correctes sur les 20 premiers essais de l'épreuve [1],Rétention de la discrimination : Essais au critère [1],Rétention : Réponses correctes sur les cinq premiers essais ([1]; day 4),"alternance spontanée, acquisition et rétention d'une discrimination simple (labyrinthe en T) [2]",Rétention : Réponses correctes sur les dix premiers essais ([1]; day 4)
"CN1c2ccccc2C(NCCCCCCC(=O)O)c2ccc(Cl)cc2S1(=O)=O (racemic) [Tianeptine, tianeptine]","12,75 ± 0,77","8,58 ± 0,60 essais",n'a pas d'effet,facilitait,
"CN1c2ccccc2C(NCCCCCCC(=O)O)c2ccc(Cl)cc2S1(=O)=O (single isomer, unassigned; (+)) [Isomère (+), (+)7-[(3-chloro-6-méthyl-5,5-dioxo-6,11-dihydrodibenzo[c,f]-[1,2]-thiazepin-11-yl)amino]heptanoatede sodium]","14,83 ± 0,75","7,83 ± 0,74 essais","3,92 ± 0,15",,"performances supérieures (p<0,02) à celles du groupe tianeptine"
